According to ChEMBL document CHEMBL1201862, “PubChem BioAssay data set” (2004):
Activity calls are given as the source filed them.

Key:
[1] = biological target: T1, Corticotropin-releasing factor receptor 2/Corticotropin-releasing factor-binding protein (Homo sapiens, UniProt P24387+Q13324); assay: Dose Response confirmation of uHTS hits for small molecule antagonists of the CRF-binding protein and CRF-R2 receptor complex.; type: functional; details: read-out: IC50_Mean
T1 sequence (Q13324 whole entry): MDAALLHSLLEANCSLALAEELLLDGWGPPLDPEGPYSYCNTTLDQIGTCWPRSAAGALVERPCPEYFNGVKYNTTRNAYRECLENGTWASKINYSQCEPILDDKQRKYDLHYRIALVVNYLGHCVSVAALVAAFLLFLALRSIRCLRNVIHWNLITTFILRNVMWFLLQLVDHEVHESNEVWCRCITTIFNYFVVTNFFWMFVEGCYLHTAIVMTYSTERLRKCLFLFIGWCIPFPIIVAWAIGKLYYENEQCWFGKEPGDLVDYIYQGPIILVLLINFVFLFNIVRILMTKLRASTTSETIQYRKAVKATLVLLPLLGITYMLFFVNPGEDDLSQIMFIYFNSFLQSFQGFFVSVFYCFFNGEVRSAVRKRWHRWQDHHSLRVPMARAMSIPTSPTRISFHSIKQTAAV
T1 sequence (P24387 whole entry): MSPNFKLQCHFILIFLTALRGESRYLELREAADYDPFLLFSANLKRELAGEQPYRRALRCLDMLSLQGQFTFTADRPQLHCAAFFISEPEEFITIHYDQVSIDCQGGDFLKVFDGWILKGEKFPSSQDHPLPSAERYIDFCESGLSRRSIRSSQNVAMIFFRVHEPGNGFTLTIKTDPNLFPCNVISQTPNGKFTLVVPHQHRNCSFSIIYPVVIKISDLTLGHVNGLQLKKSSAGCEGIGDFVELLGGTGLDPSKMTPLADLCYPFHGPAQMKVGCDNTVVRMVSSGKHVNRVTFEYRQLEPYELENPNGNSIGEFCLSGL

[2] = biological target: T1, Corticotropin-releasing factor receptor 2/Corticotropin-releasing factor-binding protein; assay: activators of CRF receptor 2 with binding protein – uHTS hits, confirmation (AID 602473); type: functional; details: read-out: EC50_Mean
[3] = CRF-BP/CRF-R2 complex antagonists, dose response, cell-based, uHTS hits, 384-well (AID 651639); type: functional, Homo sapiens; details: read-out: IC50_Mean
cells [4] = type: functional, cell-based
cells [5] = type: functional, cell-based; remark: listed apart in the source
Fatty acid synthase [6] = biological target: T2, Fatty acid synthase (Homo sapiens, UniProt P49327); assay: FAS thioesterase domain inhibitors, dose response, biochemical, endpoint fluorescence intensity, uHTS hits (AID 624327); type: functional;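 also: fluorescence from hydrolysis of an O-methyl fluorescein acyl ester substrate by the enzyme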
Fatty acid synthase [7] = biological target: T2, Fatty acid synthase; assay: FAS thioesterase domain inhibitors, dose response, biochemical, kinetic fluorescence intensity (AID 624326); type: functional;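 also: rate of fluorescence rise from hydrolysis of a fluorogenic O-methyl fluorescein ester substrate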
[8] = Luminescence Cell-Based Dose Retest to Confirm Inhibitors of Cancer Stem Cells. [Related pubchem assays (depositor defined):AID2717, AID2721]; type: functional; details: Homo sapiens
[9] = biological target: T3, Heat shock factor protein 1 (Mus musculus, UniProt P38532); assay: HSF1 potentiators in luciferase reporter cells, confirmation, cell-based, NIH3T3, luminescence, dose retest (AID 435004); type: functional;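 also: stress induced by proteasome inhibitor MG132 added 30 min after compound; luciferase reporter driven by HSF1 response element in NIH3T3 cells; actives raise luminescence as potentiators of the MG132 stress response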
T3 sequence (P38532 whole entry): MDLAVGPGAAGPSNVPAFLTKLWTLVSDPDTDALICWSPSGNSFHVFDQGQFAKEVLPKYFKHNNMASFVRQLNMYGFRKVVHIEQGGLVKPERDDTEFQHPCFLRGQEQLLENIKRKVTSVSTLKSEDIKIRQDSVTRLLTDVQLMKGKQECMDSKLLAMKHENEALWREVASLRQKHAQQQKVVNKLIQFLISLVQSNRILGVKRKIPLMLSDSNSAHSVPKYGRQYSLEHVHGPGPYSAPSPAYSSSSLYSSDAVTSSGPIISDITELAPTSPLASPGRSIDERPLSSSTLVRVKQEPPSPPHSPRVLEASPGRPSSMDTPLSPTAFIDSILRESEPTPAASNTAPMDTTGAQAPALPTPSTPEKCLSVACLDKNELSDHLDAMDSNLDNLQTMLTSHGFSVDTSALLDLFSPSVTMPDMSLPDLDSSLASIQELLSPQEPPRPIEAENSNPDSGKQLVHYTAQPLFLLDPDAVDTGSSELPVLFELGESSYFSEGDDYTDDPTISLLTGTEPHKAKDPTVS

[10] = biological target: T4, Replicative DNA helicase DnaB (Mycobacterium tuberculosis, UniProt P9WMR3); assay: DnaB intein splicing inhibitors, dose response, biochemical, cell-free fluorescence (AID 449749); type: functional
T4 sequence (P9WMR3 whole entry): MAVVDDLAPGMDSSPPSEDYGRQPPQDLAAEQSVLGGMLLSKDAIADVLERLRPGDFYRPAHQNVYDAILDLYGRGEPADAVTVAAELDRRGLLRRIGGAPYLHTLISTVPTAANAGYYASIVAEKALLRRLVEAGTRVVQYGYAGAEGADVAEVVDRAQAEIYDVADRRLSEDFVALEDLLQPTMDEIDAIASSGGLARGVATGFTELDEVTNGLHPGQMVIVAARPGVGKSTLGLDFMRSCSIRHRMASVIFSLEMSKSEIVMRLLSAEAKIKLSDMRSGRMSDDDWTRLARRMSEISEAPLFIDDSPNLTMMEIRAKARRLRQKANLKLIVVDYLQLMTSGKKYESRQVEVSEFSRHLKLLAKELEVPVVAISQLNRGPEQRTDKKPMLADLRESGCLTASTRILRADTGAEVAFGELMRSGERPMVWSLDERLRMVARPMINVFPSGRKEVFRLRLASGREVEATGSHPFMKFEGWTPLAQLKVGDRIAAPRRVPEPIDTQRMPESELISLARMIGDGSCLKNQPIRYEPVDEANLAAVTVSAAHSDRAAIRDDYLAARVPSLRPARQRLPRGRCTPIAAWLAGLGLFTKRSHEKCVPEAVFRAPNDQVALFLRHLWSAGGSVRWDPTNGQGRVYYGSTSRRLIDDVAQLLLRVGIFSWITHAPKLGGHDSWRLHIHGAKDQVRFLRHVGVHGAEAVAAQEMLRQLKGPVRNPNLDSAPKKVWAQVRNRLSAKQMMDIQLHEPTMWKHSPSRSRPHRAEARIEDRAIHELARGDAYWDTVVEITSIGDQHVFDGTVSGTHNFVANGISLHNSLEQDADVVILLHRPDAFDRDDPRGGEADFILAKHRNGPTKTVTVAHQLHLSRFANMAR

Protein RecA = biological target: T5, Protein RecA (Mycobacterium tuberculosis, UniProt P9WHJ3); assay: Fluorescence Cell-Free Homogeneous Dose Retest to Identify Inhibitors of RecA-Intein Splicing Activity. [Related pubchem assays (depositor defined):AID2097, AID2223, AID489010, AID492950]; type: functional
T5 sequence (P9WHJ3 whole entry): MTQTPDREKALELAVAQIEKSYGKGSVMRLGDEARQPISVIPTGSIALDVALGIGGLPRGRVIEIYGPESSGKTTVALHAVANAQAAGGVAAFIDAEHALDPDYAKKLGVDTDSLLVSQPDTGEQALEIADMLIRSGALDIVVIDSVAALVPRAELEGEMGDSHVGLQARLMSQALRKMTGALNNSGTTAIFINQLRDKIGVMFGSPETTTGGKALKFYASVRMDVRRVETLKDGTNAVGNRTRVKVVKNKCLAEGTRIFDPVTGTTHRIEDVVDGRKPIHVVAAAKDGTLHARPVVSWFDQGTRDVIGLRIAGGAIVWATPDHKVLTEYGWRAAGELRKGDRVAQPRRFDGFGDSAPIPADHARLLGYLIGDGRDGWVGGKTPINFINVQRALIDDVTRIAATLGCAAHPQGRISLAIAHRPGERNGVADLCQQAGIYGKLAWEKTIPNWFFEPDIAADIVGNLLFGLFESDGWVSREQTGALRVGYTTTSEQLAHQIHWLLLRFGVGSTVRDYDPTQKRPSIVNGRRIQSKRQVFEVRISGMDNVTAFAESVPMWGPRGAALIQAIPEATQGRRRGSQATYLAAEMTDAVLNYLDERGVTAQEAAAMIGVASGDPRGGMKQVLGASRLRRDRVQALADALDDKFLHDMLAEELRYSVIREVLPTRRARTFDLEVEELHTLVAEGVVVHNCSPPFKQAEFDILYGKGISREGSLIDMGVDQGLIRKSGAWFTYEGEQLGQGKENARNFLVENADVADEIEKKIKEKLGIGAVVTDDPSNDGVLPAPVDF

T2 sequence (P49327 whole entry, the tested form may be a part): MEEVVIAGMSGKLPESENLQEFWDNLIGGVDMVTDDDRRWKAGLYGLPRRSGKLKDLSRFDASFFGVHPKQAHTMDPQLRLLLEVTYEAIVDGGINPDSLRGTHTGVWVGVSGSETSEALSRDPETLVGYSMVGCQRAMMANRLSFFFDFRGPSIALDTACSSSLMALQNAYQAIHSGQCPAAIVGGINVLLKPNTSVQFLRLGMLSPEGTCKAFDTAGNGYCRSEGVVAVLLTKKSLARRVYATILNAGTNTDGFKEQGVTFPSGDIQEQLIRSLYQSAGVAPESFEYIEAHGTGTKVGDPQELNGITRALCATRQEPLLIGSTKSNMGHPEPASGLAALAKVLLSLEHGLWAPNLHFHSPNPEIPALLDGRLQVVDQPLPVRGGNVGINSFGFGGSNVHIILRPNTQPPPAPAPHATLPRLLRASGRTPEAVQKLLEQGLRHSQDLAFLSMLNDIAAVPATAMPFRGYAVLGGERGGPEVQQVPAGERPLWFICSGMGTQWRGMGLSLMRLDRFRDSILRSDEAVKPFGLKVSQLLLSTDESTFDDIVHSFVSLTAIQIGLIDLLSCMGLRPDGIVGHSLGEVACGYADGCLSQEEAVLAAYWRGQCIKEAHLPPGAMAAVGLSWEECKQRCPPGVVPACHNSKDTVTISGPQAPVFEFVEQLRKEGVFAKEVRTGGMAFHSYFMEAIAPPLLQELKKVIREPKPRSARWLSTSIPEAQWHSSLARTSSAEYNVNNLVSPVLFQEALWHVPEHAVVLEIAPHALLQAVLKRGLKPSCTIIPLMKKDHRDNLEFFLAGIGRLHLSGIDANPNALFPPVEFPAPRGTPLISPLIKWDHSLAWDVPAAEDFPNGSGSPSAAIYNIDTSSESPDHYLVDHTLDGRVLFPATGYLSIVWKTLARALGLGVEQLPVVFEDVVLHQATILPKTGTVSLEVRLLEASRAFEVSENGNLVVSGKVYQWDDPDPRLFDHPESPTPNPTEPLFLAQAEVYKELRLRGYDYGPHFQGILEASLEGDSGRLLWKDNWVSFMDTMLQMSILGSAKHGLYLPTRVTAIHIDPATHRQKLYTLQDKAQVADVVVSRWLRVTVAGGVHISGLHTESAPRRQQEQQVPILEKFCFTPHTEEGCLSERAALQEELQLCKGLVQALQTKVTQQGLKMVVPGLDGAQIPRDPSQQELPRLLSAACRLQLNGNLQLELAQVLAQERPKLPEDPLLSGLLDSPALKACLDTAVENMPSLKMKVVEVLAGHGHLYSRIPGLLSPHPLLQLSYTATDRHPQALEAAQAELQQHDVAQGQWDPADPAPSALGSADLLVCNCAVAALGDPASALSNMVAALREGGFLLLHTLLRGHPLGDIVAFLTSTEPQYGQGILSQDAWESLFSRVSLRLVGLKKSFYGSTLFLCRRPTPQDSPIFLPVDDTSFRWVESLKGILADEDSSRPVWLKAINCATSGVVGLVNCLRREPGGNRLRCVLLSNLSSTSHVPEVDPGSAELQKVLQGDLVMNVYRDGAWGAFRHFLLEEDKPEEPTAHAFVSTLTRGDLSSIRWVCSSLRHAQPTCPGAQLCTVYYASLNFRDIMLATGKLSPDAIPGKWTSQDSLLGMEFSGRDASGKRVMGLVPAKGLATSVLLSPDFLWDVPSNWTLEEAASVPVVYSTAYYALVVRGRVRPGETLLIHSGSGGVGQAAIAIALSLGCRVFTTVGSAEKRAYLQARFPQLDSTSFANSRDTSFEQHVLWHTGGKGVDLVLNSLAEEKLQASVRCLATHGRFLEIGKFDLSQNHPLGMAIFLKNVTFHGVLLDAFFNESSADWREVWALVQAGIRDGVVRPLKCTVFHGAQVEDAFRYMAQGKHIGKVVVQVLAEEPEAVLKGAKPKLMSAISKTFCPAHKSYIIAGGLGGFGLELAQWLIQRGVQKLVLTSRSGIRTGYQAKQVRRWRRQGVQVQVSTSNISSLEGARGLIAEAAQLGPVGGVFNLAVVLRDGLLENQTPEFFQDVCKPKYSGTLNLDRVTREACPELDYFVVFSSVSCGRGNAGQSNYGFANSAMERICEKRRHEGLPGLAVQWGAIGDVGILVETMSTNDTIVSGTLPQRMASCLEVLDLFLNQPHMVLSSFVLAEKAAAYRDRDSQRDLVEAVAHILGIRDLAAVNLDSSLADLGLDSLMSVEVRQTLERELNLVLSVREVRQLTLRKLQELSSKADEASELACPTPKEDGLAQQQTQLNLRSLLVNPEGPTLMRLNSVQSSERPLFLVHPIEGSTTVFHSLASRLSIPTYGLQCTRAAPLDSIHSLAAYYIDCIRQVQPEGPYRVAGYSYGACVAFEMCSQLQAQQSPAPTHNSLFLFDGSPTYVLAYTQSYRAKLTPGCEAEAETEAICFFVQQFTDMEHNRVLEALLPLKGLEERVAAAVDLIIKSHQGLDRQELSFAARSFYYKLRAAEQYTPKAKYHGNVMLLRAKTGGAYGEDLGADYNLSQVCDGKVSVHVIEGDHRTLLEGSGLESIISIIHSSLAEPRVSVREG

## COC(=O)C1=CN(Cc2ccc(OC)cc2)C=C(C(=O)OC)C1c1cccs1
[1]
  IC50: 4.21 µM (active)
[2]
  EC50: > 53 µM (inactive)
[3]
  IC50: > 20 µM (inactive)

## COC(=O)c1cc(S(=O)(=O)NCc2ccccc2OC)cn1C
Cells [4]
  EC50: > 350 µM (not active)
Cells [5]
  EC50: > 350 µM (not active)

## Cc1ccc(NC(=O)Cn2ncn3c(cc4ccccc43)c2=O)cc1F
[1]
  IC50: 9.94 µM (active)
[2]
  EC50: > 53 µM (inactive)
[3]
  IC50: 7.27 µM (active)

## Cc1ccc(NC(=O)c2cc([N+](=O)[O-])ccc2N2CCOCC2)cc1C
Fatty acid synthase [6]
  IC50: 4.24 µM (active)
Fatty acid synthase [7]
  IC50: 2.81 µM (active)

## Cc1ccc(-c2cc(NC(=O)CCl)n(-c3ccccc3)n2)cc1
[8]
  AC50: 5.24 µM (active)
[9]
  EC50: 9.36 µM (active)
[10]
  AC50: 16.2 µM (active)
Protein RecA
  EC50: 5.68 µM (active)

## O=C(N/C(=C/C=C/c1ccccc1)C(=O)N1CCCCC1)c1ccc([N+](=O)[O-])cc1
Fatty acid synthase [6]
  IC50: 0.295 µM (active)
Fatty acid synthase [7]
  IC50: 0.258 µM (active)

## CCOc1ccc(CCNC(=O)COC(=O)Cn2nc(C)c([N+](=O)[O-])c2C)cc1OCC
Cells [4]
  EC50: > 350 µM (not active)
Cells [5]
  EC50: > 350 µM (not active)

## CC1CCc2nc(NC(=O)CN3CCN(c4ccc(F)cc4)CC3)sc2C1 (stereo not given)
Fatty acid synthase [6]
  IC50: 2.04 µM (active)
Fatty acid synthase [7]
  IC50: 1.81 µM (active)

## O=C(OCc1cccc(C(F)(F)F)c1)c1cc([N+](=O)[O-])ccc1N1CCOCC1
Fatty acid synthase [6]
  IC50: 7.84 µM (active)
Fatty acid synthase [7]
  IC50: 7.24 µM (active)

## CCOc1ccc(N2CC(C(=O)Nc3ccccc3C(=O)NC3CC3)CC2=O)cc1 (stereo not given)
Cells [4]
  EC50: > 350 µM (not active)
Cells [5]
  EC50: > 350 µM (not active)

## O=C(/C=C/c1cc2ccccc2o1)c1ccccc1O
[8]
  AC50: 10.6 µM (active)
